Measured values published in the supplement of paper PMC10307832.

How the values were obtained:
Test in all cases: relative viability (nuclei count vs DMSO), 5 days (fraction); higher = more cells survive
Etoposide + Luminespib = compound: COc1cc([C@@H]2c3cc4c(cc3[C@@H](O[C@@H]3O[C@@H]5CO[C@@H](C)O[C@H]5[C@H](O)[C@H]3O)[C@H]3COC(=O)[C@H]23)OCO4)cc(OC)c1O [Etoposide] + CCNC(=O)c1noc(-c2cc(C(C)C)c(O)cc2O)c1-c1ccc(CN2CCOCC2)cc1 [Luminespib] (partner 0.01 µM)
How it was run: (§1)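 For relative viability, nuclei counts in treated wells were divided by those in vehicle wells. Lung cancer cell lines had been pin-tool dosed in 1536-well plates the day after seeding and cultured for 5 days, then fixed and stained in one step (final 0.05% Triton X-100, 1% formaldehyde, 1 ug/ml Hoechst) and imaged at 4×. Doses were one drug alone or a fixed anchor-drug dose plus five library-drug doses (not always all listed) in √10 steps, and values are duplicate-plate medians.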

Etoposide + Alpelisib = compound: COc1cc([C@@H]2c3cc4c(cc3[C@@H](O[C@@H]3O[C@@H]5CO[C@@H](C)O[C@H]5[C@H](O)[C@H]3O)[C@H]3COC(=O)[C@H]23)OCO4)cc(OC)c1O [Etoposide] + Cc1nc(NC(=O)N2CCC[C@H]2C(N)=O)sc1-c1ccnc(C(C)(C)C(F)(F)F)c1 [Alpelisib] (partner 2 µM)
How it was run: as §1

Bleomycin + Phenformin = compound: CC1=C(N=C(N=C1N)[C@H](CC(=O)N)NC[C@@H](C(=O)N)N)C(=O)N[C@@H]([C@H](C2=CN=CN2)OC3C(C(C(C(O3)CO)O)O)OC4C(C(C(C(O4)CO)O)OC(=O)N)O)C(=O)N[C@H](C)[C@H]([C@H](C)C(=O)N[C@@H]([C@@H](C)O)C(=O)NCCC5=NC(=CS5)C6=NC(=CS6)C(=O)NCCC[S+](C)C)O [Bleomycin] + N=C(N)NC(=N)NCCc1ccccc1 [Phenformin] (partner 250 µM); conditions: main component drawn
How it was run: as §1

Bleomycin + Navitoclax = compound: CC1=C(N=C(N=C1N)[C@H](CC(=O)N)NC[C@@H](C(=O)N)N)C(=O)N[C@@H]([C@H](C2=CN=CN2)OC3C(C(C(C(O3)CO)O)O)OC4C(C(C(C(O4)CO)O)OC(=O)N)O)C(=O)N[C@H](C)[C@H]([C@H](C)C(=O)N[C@@H]([C@@H](C)O)C(=O)NCCC5=NC(=CS5)C6=NC(=CS6)C(=O)NCCC[S+](C)C)O [Bleomycin] + CC1(C)CCC(c2ccc(Cl)cc2)=C(CN2CCN(c3ccc(C(=O)NS(=O)(=O)c4ccc(N[C@H](CCN5CCOCC5)CSc5ccccc5)c(S(=O)(=O)C(F)(F)F)c4)cc3)CC2)C1 [Navitoclax] (partner 0.5 µM); conditions: main component drawn
How it was run: as §1

Cell Line | relative viability (Etoposide + Luminespib; first compound 0.01 µM) | relative viability (Etoposide + Luminespib; first compound 0.03162 µM) | relative viability (Etoposide + Luminespib; first compound 0.1 µM) | relative viability (Etoposide + Luminespib; first compound 0.3162 µM) | relative viability (Etoposide + Luminespib; first compound 1 µM) | relative viability (Etoposide + Alpelisib; first compound 0.01 µM) | relative viability (Etoposide + Alpelisib; first compound 0.03162 µM) | relative viability (Etoposide + Alpelisib; first compound 0.1 µM) | relative viability (Etoposide + Alpelisib; first compound 0.3162 µM) | relative viability (Etoposide + Alpelisib; first compound 1 µM) | relative viability (Bleomycin + Phenformin; first compound 0.01 µM) | relative viability (Bleomycin + Phenformin; first compound 0.03162 µM) | relative viability (Bleomycin + Phenformin; first compound 0.1 µM) | relative viability (Bleomycin + Phenformin; first compound 0.3162 µM) | relative viability (Bleomycin + Phenformin; first compound 1 µM) | relative viability (Bleomycin + Navitoclax; first compound 0.01 µM) | relative viability (Bleomycin + Navitoclax; first compound 0.03162 µM) | relative viability (Bleomycin + Navitoclax; first compound 0.1 µM) | relative viability (Bleomycin + Navitoclax; first compound 0.3162 µM) | relative viability (Bleomycin + Navitoclax; first compound 1 µM)
HCC-15 | 0.473 | 0.303 | 0.366 | 0.15 | 0.178 | 0.894 | 0.898 | 0.721 | 0.333 | 0.122 | 0.418 | 0.457 | 0.387 | 0.16 | 0.129 | 0.656 | 0.68 | 0.713 | 0.378 | 0.324
HCC-44 | 1.03 | 0.84 | 0.774 | 0.411 | 0.279 | 0.635 | 0.89 | 0.857 | 0.569 | 0.323 | 0.104 | 0.0979 | 0.075 | 0.0859 | 0.0579 | 0.674 | 0.323 | 0.278 | 0.161 | 0.191
HCC-78 | – | – | – | – | – | 0.316 | 0.354 | 0.212 | 0.213 | 0.161 | 0.573 | 0.74 | 0.581 | 0.321 | 0.403 | 0.463 | 0.439 | 0.387 | 0.326 | 0.278
HCC-366 | – | – | – | – | – | 0.305 | 0.39 | 0.333 | 0.162 | 0.0382 | 0.455 | 0.618 | 0.423 | 0.159 | 0.0675 | 0.74 | 0.489 | 0.268 | 0.0573 | 0.0178
HCC-827 | 0.283 | 0.795 | 0.204 | 0.315 | 0.175 | 0.967 | 0.912 | 0.696 | 0.453 | 0.18 | 0.351 | 0.311 | 0.361 | 0.304 | 0.172 | 0.986 | 1.06 | 0.991 | 0.723 | 0.362
HOP-62 | 0.855 | 0.977 | 0.866 | 0.638 | 0.307 | 0.995 | 1.25 | 0.518 | 0.663 | 0.294 | 0.395 | 0.447 | 0.239 | 0.185 | 0.105 | 0.367 | 0.405 | 0.118 | 0.0652 | 0.0435
IA-LM | – | – | – | – | – | 0.773 | 0.815 | 0.477 | 0.645 | 0.552 | – | – | – | – | – | 0.498 | 0.673 | 0.611 | 0.28 | 0.205
LC-2-ad | 0.899 | 0.833 | 0.711 | 0.34 | 0.305 | 0.888 | 0.911 | 0.846 | 0.532 | 0.172 | 0.493 | 0.536 | 0.385 | 0.283 | 0.238 | 0.333 | 0.364 | 0.24 | 0.123 | 0.13
LCLC-103H | 0.924 | 1.17 | 0.954 | 0.832 | 0.541 | 1.02 | 1.12 | 0.774 | 0.973 | 0.703 | 0.329 | 0.333 | 0.294 | 0.274 | 0.223 | – | – | – | – | –
NCI-H358 | 0.243 | 0.327 | 0.209 | 0.179 | 0.095 | 0.873 | 0.809 | 0.646 | 0.246 | 0.159 | 0.343 | 0.352 | 0.325 | 0.171 | 0.147 | – | – | – | – | –
NCI-H522 | 1.03 | 0.988 | 0.866 | 0.907 | 0.601 | – | – | – | – | – | 0.561 | 0.585 | 0.493 | 0.363 | 0.416 | – | – | – | – | –
NCI-H650 | 0.695 | 0.895 | 0.336 | 0.179 | 0.174 | 0.945 | 0.977 | 0.949 | 0.5 | 0.24 | 0.342 | 0.399 | 0.384 | 0.327 | 0.202 | – | – | – | – | –
NCI-H661 | 0.956 | 0.901 | 0.898 | 0.553 | 0.435 | 0.995 | 0.61 | 0.413 | 0.388 | 0.3 | 0.272 | 0.239 | 0.232 | 0.216 | 0.215 | – | – | – | – | –
NCI-H1299 | – | – | – | – | – | 1.04 | 1.04 | 1.14 | 1.02 | 0.872 | – | – | – | – | – | 0.977 | 1.01 | 0.922 | 0.396 | 0.376
NCI-H1563 | 0.502 | 0.463 | 0.479 | 0.408 | 0.396 | 0.855 | 0.918 | 0.868 | 0.588 | 0.557 | 0.581 | 0.658 | 0.64 | 0.551 | 0.511 | – | – | – | – | –
NCI-H1623 | 0.541 | 0.537 | 0.347 | 0.405 | 0.28 | – | – | – | – | – | 0.548 | 0.631 | 0.513 | 0.442 | 0.333 | – | – | – | – | –
NCI-H1650 | 0.204 | 0.175 | 0.202 | 0.209 | 0.211 | – | – | – | – | – | 0.293 | 0.239 | 0.206 | 0.114 | 0.149 | 0.394 | 0.429 | 0.212 | 0.148 | 0.211
NCI-H1703 | – | – | – | – | – | 0.406 | 0.367 | 0.31 | 0.287 | 0.255 | – | – | – | – | – | 1.05 | 1.11 | 0.531 | 0.278 | 0.203
NCI-H2342 | 0.622 | 0.728 | 0.425 | 0.352 | 0.29 | – | – | – | – | – | 0.552 | 0.707 | 0.626 | 0.441 | 0.528 | – | – | – | – | –
SW 900 | 0.185 | 0.21 | 0.168 | 0.175 | 0.153 | – | – | – | – | – | 0.592 | 0.447 | 0.335 | 0.11 | 0.16 | – | – | – | – | –
